Where two headings read alike, the source gives them in different places.
Key:
AOM/DSS-induced CRC = experiment: Animal model of AOM/DSS-induced CRC; type: in vivo, male C57BL/6 mice; settings: single agent; JMF3086 25 mg/kg oral 5 days/week or oxaliplatin 5 mg/kg i.p. once a week, two weeks; FIG. 1B
Method: FIGS. 1A and 1B show the effect of a 3,5,N-trihydroxy-alkanamide derivative, JMF3086, combined with oxaliplatin on colitis-induced colorectal cancer in vivo. Mice were intraperitoneally injected with AOM (12.5 mg/kg) and maintained for 7 days, then subjected to 3 cycles of DSS treatment (1 cycle representing 5 days of 3.5% DSS followed by 14 days of H2O). […] Scale bars: 1 mm **P<0.01 versus vehicle.
AOM in conjunction with the additional DSS inflammatory stimulus results in tumor development that is restricted to the colon in mice (11, 12). This model is widely utilized to recapitulate human colorectal cancer because it results in inflammation and ulceration of the entire colon, similar to what is observed in patients (12). CRC was induced in male C57BL/6 mice via the intraperitoneal injection of AOM (12.5 mg/kg) while the mice were maintained with a regular diet and drinking water for 7 days and then subjecting to 3 cycles of DSS treatment, with each cycle consisting of the administration of 3.5% DSS for 5 days followed by a 14-day recovery period with regular water (FIG. 1A). […]

[1] = system: HT29-Luciferase expressing cells; experiment: Experimental colorectal cancer metastasis to the liver (HT29-Luciferase cells injected into spleen, IVIS imaging); type: in vivo, NOD/SCID mice; settings: single agent; JMF3086 oral 5 days/week, oxaliplatin or irinotecan i.p. once a week, two weeks; FIGS. 2B and 2C
Method: Seven-week-old female NOD/SCID mice were obtained from the National Laboratory Animal Center. The mice were anesthetized by continuous flow of 2-3% isoflurane. To generate liver metastases derived from human colorectal cancer cells in mouse models, HT29-Luciferase expressing cells (1×10^6) were suspended in 100 μl PBS and injected into the spleen of mice. After one-week recovery, the mice were randomized into vehicle and treatment group. […] Mice were then given endotoxon-free luciferse substrate and photographed by IVIS imaging system (Xenogen) once a week. Tumors in spleen and liver were collected and weighed after sacrificed.

[2] = system: colorectal cancer cells (HCT116); experiment: Experimental colorectal cancer metastasis to the lung (HCT116 injected via tail vein); type: in vivo, nude mice; settings: JMF3086 100 mg/kg; FIG. 2E
Method: Besides, to examine the anti-metastatic activity of JMF3086, colorectal cancer cells (HCT116) were intravenously injected into nude mice via the tail vein (FIG. 2D). JMF3086 (100 mg/kg) reduced lung tumor nodules by macroscopic observation (FIG. 2E), indicating its inhibition on lung metastasis.

[3] = system: angiogenesis (neovessel formation in matrigel plugs); experiment: Subcutaneous matrigel plug angiogenesis assay with conditioned medium of hypoxic HCT116 cells; type: in vivo, nude mice; settings: HCT116 treated with 30 μM JMF3086 for 20 hours, hypoxia 4 hours; plugs after 14 days; FIG. 2F
Method: Angiogenesis is an essential step of tumor growth and metastasis (13). To determining the effect of JMF3086 on angiogenesis, HCT116 cells treated with 30 μM JMF3086 for 20 hours were exposed to hypoxia for 4 hours, then conditional medium was collected and subcutaneous matrigel plug assay was conducted by injecting of 75 μl conditional medium mixed with 425 μl matrigel and 50 U heparin/ml into nude mice (5 mice/group). Mice were sacrificed and dissected after 14 days. Matrigel plug retrieved from mice were photographed. Quantification of neovessel formation in matrigel plugs were estimated using Drabkin reagent kit 525.

A549-Luc cells = experiment: Orthotopic lung cancer model (A549-Luc, IVIS imaging); type: in vivo, NOD/SCID mice; settings: single agent; JMF3086 oral 5 days/week or cisplatin i.p. once a week, two weeks; FIG. 3B
Method: In this Example, we use A549 cells [non-small cell lung cancer cell line with KRAS mutations (EGFR wild-type)] to establish the orthotopic lung cancer models. Seven-week-old male NOD/SCID mice were anesthetized by continuous flow of 2-3% isoflurane. A549-Luc cells (2×10^6) suspended in 40 μl of PBS were injected percutaneously into the right lung of the mice using 500 μl Gas-Tight syringes with 27G top winged infusion set. These mice were then given endotoxon-free luciferse substrate and photographed using IVIS-200 imaging system once a week. When lung tumor nodules were detected, the mice were oral administration of JMF3086 (5 days/week), intraperitoneally administered cisplatin (once a week) or a combination of JM3086 and cisplatin for additional two weeks (FIG. 3A).

[4] = system: various human cancer cell lines; experiment: Cell viability by MTT cell proliferation assay; type: cell-based
Method: Human […] cancer cells (Hela) and breast cancer cells (MD-MBA-231, MCF7) were seeded at 3000 cells/well in 96-well plates and maintained for 14-16 hours, then treated with JMF3086 or gemcitabine or both. After 72 hours, cells were washed with PBS then added medium containing MTT reagent (Sigma) at a final concentration of 0.5 mg/ml for 4 hours. Then, the medium was replaced with 200 μl of DMSO for 30 minutes, and using an ELISA reader (570 nm) to get the absorbance density values. The 50% of inhibition concentration (IC50) of death cells was calculated.
Effect of three 3,5,N-trihydroxy-alkanamide derivatives, JMF3086, (3R,5R)-7-{(1S,2S,6R,8S,8aR)-hexahydro-2,6-dimethyl-8-[2-dimethylbutyryloxy]naphthalenyl}-3,5-dihydroxy-N-hydroxyheptanamide (also referred to as JMF3171), and (3R,5R)-7-{[2-(4-fluoro-phenyl)-5isopropyl-3-phenyl-4-phenylcarbamoylpyrrol-1-yl]-3,5-dihydroxy-N-hydroxyheptanamide (also referred to as JMF3173) and the corresponding statins on the cell viability of various human cancer cell lines was determined by cell proliferation assay as described in Example 4. Specifically, cancer cells were treated with various concentrations of test compounds for 72 hours, and cell viability was measured by MTT assay. The half maximal inhibitory concentration (IC50) values for individual cell line were calculated.

[5] = system: H3K27-Ac binding to gene promoters in HCT116; experiment: ChIP-on-chip assay of H3K27-Ac in HCT116 cells; type: cell-based, human
Method: (§1) Colorectal cancer cells (HCT116) were treated with 30 μM JMF3086 for 24 hours, ChIP assays using control Rabbit IgG (sc-2027; Santa Cruz) or anti-H3K27-ac antibody (#4353; Cell Signaling) were performed as previously described (14).
ChIP-on-chip assays were performed in the Microarray and Gene Expression Analysis Core Facility of the National Yang-Ming University VGH Genome Research Center in Taiwan using the SurePrint G3 Human Promoter 1×1M Kit (Agilent Technologies) after DNA was further purified through phenol/chloroform/isoamyl alcohol extraction and ethanol precipitation. Genes with two-fold down-regulation or up-regulation of H3K27-Ac in log-ratio after JMF 3086 treatment were regarded as significance.

[6] = system: bindings of acetyl-H3K27, CBP, HDAC1 and HDAC3 to promoter; experiment: Quantitative ChIP (qChIP) assay of promoter binding in HCT116 cells; type: cell-based, human; settings: FIG. 5D
Method: FIGS. 5A to 5D show genome-wide analysis of target genes in 3,5,N-trihydroxy-alkanamide derivative-treated colorectal cancer cells. […] Ingenuity Pathways Analysis (IPA) analysis predicted that the genes associated with apoptosis were regulated by NR3C1. P=4.30E-37. […] The molecular network has a P-score (−log10 (p-value)) of 48. […] Data were analyzed by the Q-PCR and plotted as percent (%) of input DNA. *P<0.05, **P<0.01 versus basal, two-sided Student t test.
as §1
To further investigate these differential effects of JMF3086, the bindings of acetyl-H3K27, CBP, HDAC1 and HDAC3 to promoter were examined by quantitative ChIP (qChIP) assays. JMF3086 reduced the bindings of acetyl-H3K27 and CBP to the promoters of TNF-α, CD166, COX-2, BCL2, CXCL1, CXCL2, EpCAM, CD44, Cyclin D1 and MCL1, but increased those of HDAC1 and HDAC3 to the promoters (FIG. 5D). In contrast, JMF3086 increased the bindings of acetyl-H3K27 and CBP to the promoters of TIMP3, BMP2 and p53 but decreased those of HDAC1 and HDAC3 to their promoters (FIG. 5D).

[7] = HCT116, 30 μM, 24 hours, FIG. 5C

SMILES: CCC(C)C(=O)O[C@H]1C[C@@H](C)C=C2C=C[C@H](C)[C@H](CC[C@@H](O)C[C@@H](O)CC(=O)NO)[C@H]21 (stereo partly drawn) [JMF3086, (3R,5R)-7-{(1S,2S,6R,8S,8aR)-hexahydro-2,6-dimethyl-8-[2-methylbutyryloxy]naphthalenyl}-3,5-dihydroxy-N-hydroxyheptanamide]
- number of tumors and sizes (AOM/DSS-induced CRC): modestly reduced
- liver metastasis (luciferase activity, IVIS) [1]: modestly inhibited
- lung tumor nodules by macroscopic observation [2]: reduced
- angiogenesis induced by conditioned medium from HCT116 cells under hypoxia (matrigel plug) [3]: inhibited
- lung cancer development (luciferase activity, IVIS) (A549-Luc cells): ineffectively inhibited
- cytotoxicity / cell viability [4]: cytotoxic
- number of genes with altered binding of H3K27-acetylation ([5]; HCT116, 30 μM JMF3086, 24 hours): more than 10,000 genes
- mRNA expression of genes of inflammation and proliferation, stemness of cancer, and anti-apoptosis ([5]; HCT116, 30 μM, 24 hours): reduced
- mRNA expression of tumor suppressors ([5]; HCT116, 30 μM, 24 hours): increased
- binding of H3K27-Ac to the gene promoters of inflammation and proliferation, stemness of cancer, and anti-apoptosis [5, 7]: inhibited
- binding of H3K27-Ac to the gene promoters of tumor suppressors [5, 7]: increased
- bindings of HDAC1 and HDAC3 to the promoters of TIMP3, BMP2 and p53 [6]: decreased
- bindings of HDAC1 and HDAC3 to the promoters of TNF-α, CD166, COX-2, BCL2, CXCL1, CXCL2, EpCAM, CD44, Cyclin D1 and MCL1 [6]: increased
- bindings of acetyl-H3K27 and CBP to the promoters of TIMP3, BMP2 and p53 [6]: increased
- bindings of acetyl-H3K27 and CBP to the promoters of TNF-α, CD166, COX-2, BCL2, CXCL1, CXCL2, EpCAM, CD44, Cyclin D1 and MCL1 [6]: reduced

SMILES: CCC(C)(C)C(=O)O[C@H]1C[C@@H](C)C=C2C=C[C@H](C)[C@H](CC[C@@H](O)C[C@@H](O)CC(=O)NO)[C@H]21 [JMF3171, (3R,5R)-7-{(1S,2S,6R,8S,8aR)-hexahydro-2,6-dimethyl-8-[2-dimethylbutyryloxy]naphthalenyl}-3,5-dihydroxy-N-hydroxyheptanamide]
- cytotoxicity / cell viability [4]: cytotoxic

SMILES: CC(C)c1c(C(=O)Nc2ccccc2)c(-c2ccccc2)c(-c2ccc(F)cc2)n1CC[C@@H](O)C[C@@H](O)CC(=O)NO [JMF3173]
- cytotoxicity / cell viability ([4]; CRC and various cancer cell lines, 72 hours, MTT, FIG. 4): cytotoxic

SMILES: N.N.[Cl][Pt][Cl] [cisplatin, reference compound]
- lung cancer development (luciferase activity, IVIS) (A549-Luc cells): ineffectively inhibited

SMILES: CCc1c2c(nc3ccc(OC(=O)N4CCC(N5CCCCC5)CC4)cc13)-c1cc3c(c(=O)n1C2)COC(=O)[C@]3(O)CC [irinotecan]
- liver metastasis (luciferase activity, IVIS) [1]: modestly inhibited

SMILES: O=C1[O][Pt]2([NH][C@@H]3CCCC[C@H]3[NH]2)[O]C1=O [oxaliplatin, reference compound]
- number of tumors and sizes (AOM/DSS-induced CRC): modestly reduced
- liver metastasis (luciferase activity, IVIS) [1]: modestly inhibited

— patent US20170273921A1, “3,5,N-TRIHYDROXY-ALKANAMIDE OR 3,5,N-TRIHYDROXY-6-ALKENAMIDE DERIVATIVE ALONE OR IN COMBINATION WITH CHEMOTHERAPEUTIC AGENT FOR TREATING CANCER” (National Taiwan University, priority 2014, published 2017)
